Test results as given in the supplement of paper PMC10307832.

What was measured:
Assay in all cases: relative viability (nuclei count vs DMSO), 5 days (fraction); higher = more cells survive
NCI-H1755 = tested on: NCI-H1755
Procedure, shortened: (§1)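 Lung cancer cell lines in 1536-well plates were dosed by pin tool the day after seeding, either with one drug alone or with a fixed anchor-drug dose plus five library-drug doses (not always all listed) in √10 steps. After 5 days, cells were fixed and their nuclei stained in one step (final 0.05% Triton X-100, 1% formaldehyde, 1 ug/ml Hoechst), then counted on 4× images. Relative viability is the nuclei count in treated wells divided by that in vehicle wells. Values are medians of duplicate plates.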

LCLC-97TM1 = tested on: LCLC-97TM1
Procedure, shortened: as §1

NCI-H2009 = tested on: NCI-H2009
Procedure, shortened: as §1

NCI-H1975 = tested on: NCI-H1975
Procedure, shortened: as §1

NCI-H441 = tested on: NCI-H441
Procedure, shortened: as §1

NCI-H460 = tested on: NCI-H460
Procedure, shortened: as §1

NCI-H1355 = tested on: NCI-H1355
Procedure, shortened: as §1

NCI-H647 = tested on: NCI-H647
Procedure, shortened: as §1

SK-LU-1 = tested on: SK-LU-1
Procedure, shortened: as §1

PC-3 [JPC-3] = tested on: PC-3 [JPC-3]
Procedure, shortened: as §1

NCI-H1993 = tested on: NCI-H1993
Procedure, shortened: as §1

NCI-H520 = tested on: NCI-H520
Procedure, shortened: as §1

NCI-H1944 = tested on: NCI-H1944
Procedure, shortened: as §1

NCI-H2347 = tested on: NCI-H2347
Procedure, shortened: as §1

SW 1573 = tested on: SW 1573
Procedure, shortened: as §1

NCI-H727 = tested on: NCI-H727
Procedure, shortened: as §1

NCI-H2170 = tested on: NCI-H2170
Procedure, shortened: as §1

ABC-1 = tested on: ABC-1
Procedure, shortened: as §1

EMC-BAC-2 = tested on: EMC-BAC-2
Procedure, shortened: as §1

NCI-H2126 = tested on: NCI-H2126
Procedure, shortened: as §1

PC-14 = tested on: PC-14
Procedure, shortened: as §1

NCI-H1563 = tested on: NCI-H1563
Procedure, shortened: as §1

NCI-H1666 = tested on: NCI-H1666
Procedure, shortened: as §1

CCCCCCCCCCCC1=C(O)C(=O)C=C(O)C1=O [Embelin] + C[C@@H](Oc1cc(-c2cnn(C3CCNCC3)c2)cnc1N)c1c(Cl)ccc(F)c1Cl [Crizotinib] (partner 1 µM)
relative viability (NCI-H1755; first compound 0.08 µM): 0.829
relative viability (NCI-H1755; first compound 0.8 µM): 0.877
relative viability (NCI-H1755; first compound 2.53 µM): 0.921
relative viability (NCI-H1755; first compound 8 µM): 0.871
relative viability (LCLC-97TM1; first compound 0.8 µM): 0.517
relative viability (LCLC-97TM1; first compound 2.53 µM): 0.358
relative viability (LCLC-97TM1; first compound 8 µM): 0.312
relative viability (NCI-H2009; first compound 0.08 µM): 1.04
relative viability (NCI-H2009; first compound 0.8 µM): 1.12
relative viability (NCI-H2009; first compound 2.53 µM): 1.11
relative viability (NCI-H2009; first compound 8 µM): 1.06
relative viability (NCI-H1975; first compound 0.08 µM): 1.1
relative viability (NCI-H1975; first compound 0.8 µM): 0.999
relative viability (NCI-H1975; first compound 2.53 µM): 1
relative viability (NCI-H1975; first compound 8 µM): 1.04
relative viability (NCI-H441; first compound 0.08 µM): 0.749
relative viability (NCI-H441; first compound 0.8 µM): 0.971
relative viability (NCI-H441; first compound 2.53 µM): 0.788
relative viability (NCI-H441; first compound 8 µM): 0.901
relative viability (NCI-H460; first compound 0.08 µM): 0.818
relative viability (NCI-H460; first compound 0.8 µM): 1.04
relative viability (NCI-H460; first compound 2.53 µM): 1.02
relative viability (NCI-H460; first compound 8 µM): 0.876
relative viability (NCI-H1355; first compound 0.08 µM): 1.08
relative viability (NCI-H1355; first compound 0.8 µM): 1.18
relative viability (NCI-H1355; first compound 2.53 µM): 1.17
relative viability (NCI-H1355; first compound 8 µM): 0.974
relative viability (NCI-H647; first compound 0.08 µM): 1.44
relative viability (NCI-H647; first compound 0.8 µM): 1.08
relative viability (NCI-H647; first compound 2.53 µM): 1.48
relative viability (NCI-H647; first compound 8 µM): 1.17
relative viability (SK-LU-1; first compound 0.08 µM): 1.08
relative viability (SK-LU-1; first compound 0.8 µM): 1.06
relative viability (SK-LU-1; first compound 2.53 µM): 0.941
relative viability (SK-LU-1; first compound 8 µM): 0.922
relative viability (PC-3 [JPC-3]; first compound 0.08 µM): 0.948
relative viability (PC-3 [JPC-3]; first compound 0.8 µM): 1.01
relative viability (PC-3 [JPC-3]; first compound 2.53 µM): 1.06
relative viability (PC-3 [JPC-3]; first compound 8 µM): 0.987
relative viability (NCI-H1993; first compound 0.08 µM): 1
relative viability (NCI-H1993; first compound 0.8 µM): 0.844
relative viability (NCI-H1993; first compound 2.53 µM): 0.943
relative viability (NCI-H1993; first compound 8 µM): 0.793
relative viability (NCI-H520; first compound 0.08 µM): 0.894
relative viability (NCI-H520; first compound 0.8 µM): 1
relative viability (NCI-H520; first compound 2.53 µM): 1.07
relative viability (NCI-H520; first compound 8 µM): 0.782
relative viability (NCI-H1944; first compound 0.08 µM): 1.19
relative viability (NCI-H1944; first compound 0.8 µM): 1.21
relative viability (NCI-H1944; first compound 2.53 µM): 1.2
relative viability (NCI-H1944; first compound 8 µM): 1.17
relative viability (NCI-H2347; first compound 0.08 µM): 0.784
relative viability (NCI-H2347; first compound 0.8 µM): 0.868
relative viability (NCI-H2347; first compound 2.53 µM): 0.778
relative viability (NCI-H2347; first compound 8 µM): 0.622
relative viability (SW 1573; first compound 0.08 µM): 0.808
relative viability (SW 1573; first compound 0.8 µM): 0.977
relative viability (SW 1573; first compound 2.53 µM): 0.84
relative viability (SW 1573; first compound 8 µM): 0.887
relative viability (NCI-H727; first compound 0.08 µM): 0.938
relative viability (NCI-H727; first compound 0.8 µM): 0.924
relative viability (NCI-H727; first compound 2.53 µM): 1.06
relative viability (NCI-H727; first compound 8 µM): 0.898
relative viability (NCI-H2170; first compound 0.08 µM): 1.22
relative viability (NCI-H2170; first compound 0.8 µM): 1.18
relative viability (NCI-H2170; first compound 2.53 µM): 1.4
relative viability (NCI-H2170; first compound 8 µM): 1.36
relative viability (ABC-1; first compound 0.08 µM): 0.896
relative viability (ABC-1; first compound 0.8 µM): 1.26
relative viability (ABC-1; first compound 2.53 µM): 1.7
relative viability (ABC-1; first compound 8 µM): 1.21
relative viability (EMC-BAC-2; first compound 0.08 µM): 0.747
relative viability (EMC-BAC-2; first compound 0.8 µM): 0.831
relative viability (EMC-BAC-2; first compound 2.53 µM): 0.87
relative viability (EMC-BAC-2; first compound 8 µM): 0.764
relative viability (NCI-H2126; first compound 0.08 µM): 1.04
relative viability (NCI-H2126; first compound 0.8 µM): 1.05
relative viability (NCI-H2126; first compound 2.53 µM): 1.19
relative viability (NCI-H2126; first compound 8 µM): 1.04
relative viability (PC-14; first compound 0.08 µM): 0.916
relative viability (PC-14; first compound 0.8 µM): 0.845
relative viability (PC-14; first compound 2.53 µM): 0.921
relative viability (PC-14; first compound 8 µM): 0.891
relative viability (NCI-H1563; first compound 0.08 µM): 0.8
relative viability (NCI-H1563; first compound 0.8 µM): 0.837
relative viability (NCI-H1563; first compound 2.53 µM): 0.785
relative viability (NCI-H1563; first compound 8 µM): 0.899
relative viability (NCI-H1666; first compound 0.08 µM): 0.975
relative viability (NCI-H1666; first compound 0.8 µM): 1.24
relative viability (NCI-H1666; first compound 2.53 µM): 1.05
relative viability (NCI-H1666; first compound 8 µM): 1.01
